The test system of test [1] is native human AT progenitor cells. The protocol: 120 000 cells were plated per cm^2 in growth medium (ECGM MV) supplemented with […] penicillin-streptomycin. 48 h after seeding, medium was changed into basal defined medium (ECBM) supplemented with […] penicillin-streptomycin, 66 nmol/L Insulin, 1 nmol/L Triiodothyronine, 0.1 μg/ml human Transferrin, 100 nmol/L Cortisol (ITTC, Control) supplemented or not with 3 μmol/L Rosiglitazone or 0.25 mM isobuthylmethaxantine (IBMX). After 3 days, medium was changed and cells were maintained in ITTC medium until day 10. Cells were fixed (paraformaldehyde 4%, 15 min, RT), and stained with Bodipy 493/503 (10 μg/ml, 15 min, Invitrogen) and Hoechst 33342 (5 μg/ml, 15 min, Invitrogen). Stainings were observed by inversed fluorescent microscope (Nikon Eclipse TE300) and 5 pictures were randomly taken under 20X objective (numeric camera and acquisition software NIS-Elements 2.5 BR, Nikon®). Differentiation area (Bodipy stained area, μm^2) was measured with ImageJ software and normalized by nuclei cell number in order to obtain the differentiation area (μm^2) per cell. Total RNAs were extracted using the RNeasy kit (Qiagen). The RNA concentration was measured by fluorimetric assay (Ribogreen, Invitrogen). RNAs were reverse-transcribed using Superscript® II kit (Invitrogen). TaqMan® Primers are listed in supplemental data Table 1. The amplification reaction was done in duplicate on 15 ng of the cDNA samples in a final volume of 20 μL in 96-well reaction plates (Applied Biosystems) in a GeneAmp 7500 detection system (Applied Biosystems). All reactions were performed under the same conditions: 50° C. for 2 minutes, 95° C. for 10 minutes, 40 cycles of 95° C. for 15 seconds, and 60° C. for 1 minute. Results were analyzed with the GeneAmp 7500 software and all values were normalised to 18S rRNA levels. Progenitor cells were cultured under adipogenic conditions with or without 50 μM or 500 μM of tetramisole hydrochloride, an alkaline phosphatase inhibitor. After 3 to 10 days, Bodipy staining was performed or RNAs extracted. Progenitor cells were seeded at the density of 90000/cm2 cells in 12 well-plates. After 24 hours, cells were transfected with 500 ng/mL of MISSION® esiRNA against tissue non-specific alkaline phosphatase (MSCA1) or GFP as negative control with 1 μL of lipofectamine® 2000 (invitrogen) in 1 mL of basal medium. After 12 hours, medium was removed and cells were rinsed once with PBS and cultured under adipogenic conditions for 3 to 10 days and RNAs were extracted.

Test [2] relates to whole native progenitor cells (CD45−/CD34+/CD31−). Description: In vitro adipogenesis of whole native progenitor cells. The class given is cell-based, human. The settings on record: 0.25 mM IBMX for 3 days, ITTC medium until day 10. The source says: (§1) An immuno-selection/depletion approach was developed to obtain the native progenitor cell subsets starting from 50.10^6 to 150.10^6 SVF cells. The total progenitor cell population (CD34+/CD31− cells) was obtained in two steps: immune cells were first removed using CD45 positive cell-depletion step (CD45-depletion kit from Stemcell Technologies, Grenoble, France) followed by endothelial cell depletion step using an anti-CD31-depletion kit (R&D Systems, Lille, France) according to manufacturer's protocol. To further isolate the distinct progenitor cell subsets, the Mscal-positive cells were selected from the CD45−/CD31− cells, the −/CD271 positive cells were selected from the CD45−/CD31−/MSCA1− cells and the CD45−/CD31−/MSCA1−/CD271− (−/−) cells using CD34 immuno-magnetic selection kits (MSCA1+, CD271+ and CD34+ immuno-magnetic selection kits were from Miltenyi Biotec, Paris, France). The purity of each fraction was assessed after selection by flow cytometry analyses.

For test [3], the system named is MSCA1+ cells (CD45−/CD34+/CD31−/CD271+/MSCA1+). Briefly: In vitro adipogenesis of the immunoselected MSCA1+ cell subset. The test is classed as cell-based, human. The conditions noted are these: IBMX stimulation.
Description: as §1
(§2) Total RNAs were extracted using the RNeasy kit (Qiagen). […] RNAs were reverse-transcribed using Superscript® II kit (Invitrogen). TaqMan® Primers are listed in supplemental data Table 1.
Cells or small pieces of whole AT were fixed (paraformaldehyde 4%, room temperature for 15 min for cultured cells and up to 1 h for whole AT). […]

The next test has as its system Progenitor cells. Description: BMP7 adipogenic culture protocol. The class given is cell-based, human. The settings on record: 50 ng/mL for 2 days, then 9 days in ITTC. On the procedure:
Progenitor cells were treated during 2 days with recombinant human BMP7 (50 ng/mL) then 9 days in adipogenic medium (ITTC).
MSCA1 gene expression and activity were measured. UCP1 gene expression was measured by RT-PCR.
as §2

Counter-ions that a name gives are not always drawn.

Here are results for 3 molecules from patent publication US20160160179A1, “METHOD FOR OBTAINING A POPULATION OF ISOLATED BRITE ADIPOCYTES” (INSERM (INSTITUT NATIONAL DE LA SANTÉ ET DE LA RECHERCHE …, priority 2013, published 2016).

With `c1ccc(C2CN3CCSC3=N2)cc1` (stereo not shown) [tetramisole, tetramisole hydrochloride], the “total number of nucleated cells” value in test [1] (50 μM or 500 μM, adipogenic culture conditions) is “without altering”. For the same molecule, the adipocyte differentiation entry in test [1] (50 μM or 500 μM, adipogenic culture conditions, Bodipy staining) is “concentration-dependent decrease”. Moreover, the “expression of adipogenic and adipocyte-specific genes after the commitment period” value in test [1] (day 3) is reported as “No statistically significant effect”. The “expression of adipogenic transcription factors PPARγ2, CHREBP, C/EBPα and adipocyte-specific genes LPL, GPDH, PLIN1” value in test [1] (day 10) is on record as “decreased”.
As for `CC(C)Cn1c(=O)n(C)c(=O)c2[nH]cnc21` [IBMX, 3-isobutyl-1-methylxanthine], the differentiation result in test [2] was “only slightly and insignificantly increased”. Moreover, the “differentiation (lipid laden cells)” value in test [3] (0.25 mM) is “marked appearance of lipid laden cells”. The UCP1-positive cell clusters result in test [3] (immunofluorescence) was “only found in cells from the MSCA1+ subset”.

B1: BMP7: recombinant human BMP7, a Bone Morphogenetic Protein (protein, UniProt P18075 293-431, looked up)
Bone morphogenetic protein 7: STGSKQRSQNRSKTPKNQEALRMANVAENSSSDQRQACKKHELYVSFRDLGWQDWIIAPEGYAAYYCEGECAFPLNSYMNATNHAIVQTLVHFINPETVPKPCCAPTQLNAISVLYFDDSSNVILKKYRNMVVRACGCH
As for B1, in the test on Progenitor cells, the “activity of the MSCA1 gene” value is given as “significantly increased” and the “expression of the MSCA1 gene” value is given as “significantly increased”. The UCP1 gene expression result in the test with Progenitor cells (RT-PCR) is “significant increase”.
